Our source for the IC50 values is patent publication US9062015B2, “Inhibitors of sphingosine kinase” (Merck Patent GmbH, priority 2009, dated 2015).

Structures are written as SMILES. A value given as a limit tells only on which side of the number the result lay.

This experiment addresses SphK1 (Homo sapiens, UniProt Q9NYA1). Nature of the experiment: SphK1 kinase assay, 384-well flashplate (biochemical assay). The settings on record: IC50 ranges; 5 nM modified SphK1, 800 nM omega-biotinyl-D-erythro-sphingosine, 1 μM ATP, 30° C., 120 min; read-out: SphK1 Inhibition IC50. The protocol: Tests for the Inhibition of the SphK1 Activity
The kinase assay is carried out as a 384-well flashplate assay.
5 nM modified SphK1, 800 nM omega-biotinyl-D-erythro-sphingosine and 1 μM ATP (with 0.3 μCi of ^33P-ATP/well) are incubated in a total volume of 50 μl (25 mM HEPES, 5 mM MgCl2, 1 mM dithiothreitol, 0.01% of Brij35, 0.1% of BSA (fatty acid-free), pH 7.4) without or with test substance (5-10 concentrations) at 30° C. for 120 min. The reaction is terminated using 25 μl of 200 mM EDTA solution, filtered off with suction at room temperature after 30 min, and the cavities are washed 3 times with 100 μl of 0.9% NaCl solution. The non-specific proportion of the kinase reaction (blank) is determined using 0.5 mM NaCl. Radioactivity is measured in topcount. IC50 values are calculated using RS1.

Chain of SphK1 (Q9NYA1 9-364 limits assumed): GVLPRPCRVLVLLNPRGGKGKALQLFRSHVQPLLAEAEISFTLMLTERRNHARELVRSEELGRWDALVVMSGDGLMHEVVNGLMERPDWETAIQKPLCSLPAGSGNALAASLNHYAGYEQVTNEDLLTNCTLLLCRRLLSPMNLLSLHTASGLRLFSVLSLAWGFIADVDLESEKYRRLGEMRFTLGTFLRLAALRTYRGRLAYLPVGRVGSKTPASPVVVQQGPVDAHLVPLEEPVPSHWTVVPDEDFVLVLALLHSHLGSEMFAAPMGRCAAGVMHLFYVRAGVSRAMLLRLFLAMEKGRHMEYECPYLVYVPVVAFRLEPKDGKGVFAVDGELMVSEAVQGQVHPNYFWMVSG

One may read the IC50 as the concentration that inhibits the measured activity by half. Consider `CC1(C)CCCc2cc(-c3ncnc(N4CCNCC4)n3)ccc21` [2-(5,5-Dimethyl-5,6,7,8-tetrahydronaphthalen-2-yl)-4-piperazin-1-yl-1,3,5-triazine], for which the IC50 was over 1000 nM.

As for `CC1(C)CCC(C)(C)c2cc(-c3cncc(N4CCNCC4)n3)ccc21` [6′-(5,5,8,8-Tetramethyl-5,6,7,8-tetrahydronaphthalen-2-yl)-3,4,5,6-tetrahydro-2H-1,2′-bipyrazinyl], the IC50 is over 1000 nM.

`CC1(C)CCC(C)(C)c2cc(-c3ncnc(N4CCC(N5CCCC(O)C5)CC4)n3)ccc21` (stereo not shown) [1′-[4-(5,5,8,8-Tetramethyl-5,6,7,8-tetrahydronaphthalen-2-yl)-1,3,5-triazin-2-yl]-1,4′-bipiperidinyl-3-ol]: the 50% inhibitory concentration (IC50) fell in the range of 100 to 1000 nM.

`CC1(C)CCC(C)(C)c2cc(-c3nccc(N4CCN(CCCO)CC4)n3)ccc21`: the IC50 was 100 to 1000 nM.

Consider `CC1(C)CCCc2ccc(-c3cccc(N4CCN(CCCCO)CC4)n3)cc21` [4-{4-[6-(8,8-Dimethyl-5,6,7,8-tetrahydronaphthalen-2-yl)pyridin-2-yl]-piperazin-1-yl}butan-1-ol], for which the 50% inhibitory concentration (IC50) was over 1000 nM.

On to `CC1(C)CCC(C)(C)c2cc(-c3cccc(N4CCNCC4)c3)ccc21` [1-[3-(5,5,8,8-Tetramethyl-5,6,7,8-tetrahydronaphthalen-2-yl)phenyl]-piperazine], for which the IC50 was 100 to 1000 nM.

`CC1(C)CCC(C)(C)c2cc(-c3ncnc(N4CCC(N)CC4)n3)ccc21`: the IC50 was under 100 nM.

For `CC1(C)CCCc2cc(-c3cccc(N4CCN(CCCO)CC4)n3)ccc21` [3-{4-[6-(5,5-Dimethyl-5,6,7,8-tetrahydronaphthalen-2-yl)pyridin-2-yl]-piperazin-1-yl}propan-1-ol], the concentration for half-maximal inhibition (IC50) is over 1000 nM.

In the case of `CC1(C)CCCc2ccc(-c3cccc(N4CCN(CCCCCO)CC4)n3)cc21` [5-{4-[6-(8,8-Dimethyl-5,6,7,8-tetrahydronaphthalen-2-yl)pyridin-2-yl]-piperazin-1-yl}pentan-1-ol], the IC50 is over 1000 nM.

In the case of `CC1(C)CCC(C)(C)c2cc(-c3ccnc(N4CCNCC4)c3)ccc21`, the IC50 is 100 to 1000 nM.

For the molecule `CC1(C)CCCc2cc(-c3cccc(N4CCN(CCCCCO)CC4)n3)ccc21` [5-{4-[6-(5,5-Dimethyl-5,6,7,8-tetrahydronaphthalen-2-yl)pyridin-2-yl]-piperazin-1-yl}pentan-1-ol], the IC50 lay in the range of 100 to 1000 nM.

Turning to `CC1(C)CCC(C)(C)c2cc(-c3cccc(N4CCC(N)CC4)n3)ccc21` [6′-(5,5,8,8-Tetramethyl-5,6,7,8-tetrahydronaphthalen-2-yl)-3,4,5,6-tetrahydro-2H-1,2′-bipyridinyl-4-ylamine], the IC50 lay within 100 to 1000 nM.

Take `CC1(C)CCCc2cc(-c3cccc(N4CCNCC4)n3)ccc21` [1-[6-(5,5-Dimethyl-5,6,7,8-tetrahydronaphthalen-2-yl)pyridin-2-yl]-piperazine]: the IC50 was over 1000 nM.

Take `CC1(C)CCCc2ccc(-c3cccc(N4CCNCC4)n3)cc21` [1-[6-(8,8-Dimethyl-5,6,7,8-tetrahydronaphthalen-2-yl)pyridin-2-yl]-piperazine]: the IC50 is over 1000 nM.

For `CC1(C)CCC(C)(C)c2cc(-c3cccc(N4CCN(CCCO)CC4)n3)ccc21` [3-{4-[6-(5,5,8,8-Tetramethyl-5,6,7,8-tetrahydronaphthalen-2-yl)-pyridin-2-yl]piperazin-1-yl}propan-1-ol], the 50% inhibitory concentration (IC50) lay in the range of 100 to 1000 nM.

Regarding `COCCOc1ccc(-c2ccc3c(c2)C(C)(C)CCC3(C)C)nc1N1CCN(CCCCCO)CC1`, the IC50 was over 1000 nM.

As for `CC1(C)CCC(C)(C)c2cc(-c3cc(N4CCN(CCCCO)CC4)ccn3)ccc21`, the IC50 lay in the range of 100 to 1000 nM.

For the molecule `CC1(C)CCC(C)(C)c2cc(-c3nccc(N4CCNCC4)n3)ccc21` [4-Piperazin-1-yl-2-(5,5,8,8-tetramethyl-5,6,7,8-tetrahydronaphthalen-2-yl)pyrimidine], the IC50 was in the range of 100 to 1000 nM.

As to `CC1(C)CCC(C)(C)c2cc(-c3cccc(N4CCC(N5CCC(N)C5)CC4)n3)ccc21` (stereo not shown) [1-[6′-(5,5,8,8-Tetramethyl-5,6,7,8-tetrahydronaphthalen-2-yl)-3,4,5,6-tetrahydro-2H-1,2′-bipyridinyl-4-yl]pyrrolidin-3-ylamine], the IC50 is under 100 nM.
